Data as given in patent US3989835A, “Method of using 6-substituted amino phenyl-2,3,5,6-tetra-hydro[2,1-b]thiazoles for controlling gastrointestinal nematodes” (American Cyanamid Company, priority 1974, dated 1976).
Values joined by “and” are separate entries in the source; they are usually repeats but may differ in a detail not shown here. Identical values can stand only once. Counter-ions that a name gives are not always drawn. Like-named read-outs stand apart in the source and are kept apart here.

Experiments:
in vivo [1] = settings: for Approx. LD50 /ED50: chemotherapeutic index, mouse oral, N. dubius; for LD50: mouse, in vivo, po; for Dead/Total: mice
Excerpt: Data on the acute oral toxicity to mice of various single oral doses of the above compounds and several analogs were obtained by conventional procedures, (Table IX hereinafter).

Nematospiroides dubius = test: Anthelmintic efficacy against N. dubius in mice, single oral dose; format: in vivo, Nematospiroides dubius (in albino female mice); settings: for inhibition in vivo at 1.25 mg/kg: single oral dose 1.25 mg./Kg.; for inhibition in vivo at 2 mg/kg: single oral dose 2.0 mg./Kg.; for inhibition in vivo at 4 mg/kg: single oral dose 4.0 mg./Kg.; for inhibition in vivo at 20 mg/kg: single oral dose 20 mg./Kg.; for inhibition in vivo at 7.5 mg/kg: single oral dose 7.5 mg./Kg.; for inhibition in vivo at 40 mg/kg: single oral dose 40 mg./Kg.
Experimental: Albino female mice are each inoculated with about 20 infectious larvae of Nematospiroides dubius. This nematode is a representative of the economical important trichostrongylis worms of ruminants and other hosts, and of nematodes in general. Twenty-two days after inoculation, groups of four randomly selected mice containing adult N. dubius are given single oral doses of test compounds dissolved or suspended in 0.4 ml. of water per 20 gram mouse. At 26 or 27 days after inoculation, treated mice and in each test four randomly selected groups of untreated mice are necropsied. The number of worms in the small intestine of each mouse are determined by microscopic examination. Average worm numbers for each treated group and for the untreated controls are computed and the percent efficacy determined by the customary formula:
(Average Worms in Control - Average Worms in Treated)/(Average Worms in Control) X 100.

in vivo [2] = settings: dog
Experimental: (§1) Dogs infected with mature adult whipworms Trichuris vulpis were treated with various single or double doses of unsubstituted or substituted tetramisole analogs by the oral or subcutaneous route (Table XI hereinafter). Whipworms passed in the feces were collected for several days, and the whipworms still present determined at necropsy. Percent efficacy was determined in these "critical" tests. […] Trichuris is a type of nematode refactory to treatment with most prior anthelmintics at well tolerated doses. Taxonomically allied nematodes, e.g., Trichinella and Capillaria are also refractory to most anthelmintics.

Trichuris vulpis = test: Oral or subcutaneous activity vs. mature Trichuris vulpis in dogs (critical test); format: in vivo
Experimental: as §1

[3] = Approx. LD50, mouse oral, Table IX
[4] = LD50, mice, adjusted to molar equivalents of tetramisole free base
[5] = Heligmosomoides polygyrus, po, as Base, single oral dose, mice, > indicates inactive at dose shown, read-out: Approx. ED50
[6] = Heligmosomoides polygyrus, po, mouse oral, Table IX, read-out: Approx. ED50 vs. N. dubius
[7] = Heligmosomoides polygyrus, po, molar-adjusted, read-out: Percent Nematospiroides Activity
[8] = Heligmosomoides polygyrus, po, single oral dose 5.0 mg./Kg., molar-adjusted, read-out: Percent Nematospiroides Activity
[9] = Heligmosomoides polygyrus, po, single oral dose 10 mg./Kg., molar-adjusted, read-out: Percent Nematospiroides Activity
[10] = single oral dose 10 mg./kg., N. dubius, mice
[11] = oral 5 Mg./Kg., based on total worms in all dogs

SMILES: Cl.Cl.Nc1cccc(C2CN3CCSC3=N2)c1 (racemic) [dl-m-aminotetramisole, 6-(m-Aminophenyl)-2,3,5,6-tetrahydroimidazo[2,1-b]thiazole Dihydrochloride]
- Approx. LD50 /ED50 (in vivo [1]; Table IX): 15
- LD50 (in vivo [1]; [3]): 15 mg/kg
- LD50 (in vivo [1]; [4]): ~20 mg/kg
- Dead/Total (in vivo [1]; single oral dose 4-5 Mg./Kg.): 0/8
- Dead/Total (in vivo [1]; single oral dose 10 Mg./Kg.): 2/29
- Dead/Total (in vivo [1]; single oral dose 15 Mg./Kg.): 7/14
- Dead/Total (in vivo [1]; single oral dose 20 Mg./Kg.): 10/12
- Dead/Total (in vivo [1]; single oral dose 40 Mg./Kg.): 4/4
- ED50 (Nematospiroides dubius; [5]): 1 mg/kg
- ED50 (Nematospiroides dubius; [6]): 1 mg/kg
- ED50 (Nematospiroides dubius; Heligmosomoides polygyrus, po, read-out: ED50 (approximate dose which removes 50% of the worms), N. dubius in mice, single oral dose): ~1 mg/kg
- inhibition in vivo at 1.25 mg/kg (Nematospiroides dubius; [7]): 57%
- inhibition in vivo at 2 mg/kg (Nematospiroides dubius; [7]): 92%
- inhibition in vivo at 4 mg/kg (Nematospiroides dubius; [7]): 100%
- inhibition in vivo at 5 mg/kg (Nematospiroides dubius; [8]): 100%
- inhibition in vivo at 10 mg/kg (Nematospiroides dubius; [9]): 100%
- superiority over tetramisole at dose required to attain 85 - 88% efficacy (Nematospiroides dubius; N. dubius in mice): approximately eightfold superiority
- activity in words (Nematospiroides dubius; N. dubius in mice, oral): unusually high activity
- activity relative to tetramisole (Nematospiroides dubius; from ED50s against N. dubius in mice): approximately nine times as active as tetramisole
- activity in words (Nematospiroides dubius; single dose oral ED50 against N. dubius in mice): unexpected high activity
- Average % Efficacy (Nematospiroides dubius; single oral dose 0.5 mg./kg.): 5%
- % Efficacy per Group (Nematospiroides dubius; single oral dose 0.5 mg./kg., Dihydrochloride): 2% and 6% and 8%
- Average % Efficacy (Nematospiroides dubius; single oral dose 1.00 mg./kg.): 50%
- Average % Efficacy (Nematospiroides dubius; single oral dose 1.25 mg./kg.): 81%
- % Efficacy per Group (Nematospiroides dubius; single oral dose 1.25 mg./kg., Dihydrochloride): 80% and 82%
- Average % Efficacy (Nematospiroides dubius; single oral dose 2.0 mg./kg.): 85%
- % Efficacy per Group (Nematospiroides dubius; single oral dose 2.0 mg./kg., Dihydrochloride): 77% and 78% and 82% and 83% and 88% and 92% and 98%
- % Efficacy per Group (Nematospiroides dubius; single oral dose 4 mg./kg.): 100%
- Average % Efficacy (Nematospiroides dubius; single oral dose 4 mg./kg.): 100%
- % Efficacy per Group (Nematospiroides dubius; single oral dose 5 mg./kg.): 100%
- Average % Efficacy (Nematospiroides dubius; single oral dose 5 mg./kg.): 100%
- % Efficacy per Group (Nematospiroides dubius; [10]): 100%
- Average % Efficacy (Nematospiroides dubius; [10]): 100%
- MTD (in vivo [2]; po): 7.5 mg/kg
- MTD (in vivo [2]; sc): 5 mg/kg
- % Efficacy SC (Trichuris vulpis; SC 2.5 Mg./Kg.): 92%
- % Efficacy SC (Trichuris vulpis; SC 5 Mg./Kg.): 100%
- % Efficacy Orally (Trichuris vulpis; oral 2.5 Mg./Kg.): 99%
- % Efficacy Orally (Trichuris vulpis; [11]): 98%

SMILES: O=CNc1cccc(C2CN3CCSC3=N2)c1 (racemic) [m-NH--HCO dl, 3'-(2,3,5,6-Tetrahydroimidazo[2,1-b-]thiazol-6-yl)-formanilide]
- Approx. LD50 /ED50 (in vivo [1]; Table IX): 10
- LD50 (in vivo [1]; [3]): 30 mg/kg
- LD50 (in vivo [1]; [4]): ~30 mg/kg
- Dead/Total (in vivo [1]; single oral dose 4-5 Mg./Kg.): 0/8
- Dead/Total (in vivo [1]; single oral dose 10 Mg./Kg.): 0/4
- Dead/Total (in vivo [1]; single oral dose 20 Mg./Kg.): 1/10
- Dead/Total (in vivo [1]; single oral dose 40 Mg./Kg.): 12/13
- ED50 (Nematospiroides dubius; [5]): 3 mg/kg
- ED50 (Nematospiroides dubius; [6]): 3 mg/kg
- inhibition in vivo at 4 mg/kg (Nematospiroides dubius; [7]): 79%
- inhibition in vivo at 10 mg/kg (Nematospiroides dubius; [9]): 97%
- MTD (in vivo [2]; po): 7.5 mg/kg
- MTD (in vivo [2]; sc): > 5 mg/kg
- % Efficacy Orally (Trichuris vulpis; oral 1.25 Mg./Kg.): 21%
- % Efficacy Orally (Trichuris vulpis; oral 2.5 Mg./Kg.): 83%
- % Efficacy Orally (Trichuris vulpis; [11]): 100%

SMILES: O=C(Nc1cccc(C2CN3C=CSC3=N2)c1)c1ccccc1 (centres unmarked) [Table XIV b1987]
- LD50 (in vivo [1]; [4]): ~120 mg/kg
- inhibition in vivo at 5 mg/kg (Nematospiroides dubius; [8]): 94%
- inhibition in vivo at 10 mg/kg (Nematospiroides dubius; [9]): 100%
- Percent Nematospirides Activity (Nematospiroides dubius; single oral dose 2.5 mg./Kg., molar-adjusted): 73%

SMILES: CC(=O)Nc1cccc(C2CN3CCSC3=N2)c1 (stereo not drawn) [m-NH--CO--CH3 dl, 3'-(2,3,5,6-Tetrahydroimidazo[2,1-b]thiazol-6-yl)acetanilide]
- LD50 (in vivo [1]; [3]): > 10 mg/kg
- ED50 (Nematospiroides dubius; [5]): 4 mg/kg
- ED50 (Nematospiroides dubius; [6]): 3 to 4 mg/kg

SMILES: CC(C)C(=O)Nc1cccc(C2CN3CCSC3=N2)c1.Cl (stereo not drawn) [m-NH--CO--CH(CH3)2 dl, 3'-(2,3,5,6-tetrahydroimidazo[2,1-b]thiazol-6-yl)isobutyranilide hydrochloride]
- Approx. LD50 /ED50 (in vivo [1]; Table IX): 20
- LD50 (in vivo [1]; [3]): ~60 mg/kg
- LD50 (in vivo [1]; [4]): ~75 mg/kg
- Dead/Total (in vivo [1]; single oral dose 40 Mg./Kg.): 1/6
- Dead/Total (in vivo [1]; single oral dose 80 Mg./Kg.): 5/6
- Dead/Total (in vivo [1]; single oral dose 120 Mg./Kg.): 6/6
- ED50 (Nematospiroides dubius; [5]): 3 mg/kg
- ED50 (Nematospiroides dubius; [6]): 3 mg/kg
- inhibition in vivo at 5 mg/kg (Nematospiroides dubius; [8]): 99%
- inhibition in vivo at 10 mg/kg (Nematospiroides dubius; [9]): 100%
- inhibition in vivo at 20 mg/kg (Nematospiroides dubius; [7]): 100%

SMILES: CC(C)C(=O)Nc1cccc(C2CN3CCSC3=N2)c1 (centres unmarked) [m-NH--CO--CH(CH3)2 l]
- Approx. LD50 /ED50 (in vivo [1]; Table IX): 50
- LD50 (in vivo [1]; [3]): 50 mg/kg
- LD50 (in vivo [1]; [4]): 60 to 75 mg/kg
- Dead/Total (in vivo [1]; single oral dose 50 Mg./Kg.): 2/8
- Dead/Total (in vivo [1]; single oral dose 100 Mg./Kg.): 8/8
- ED50 (Nematospiroides dubius; [5]): 1 mg/kg
- ED50 (Nematospiroides dubius; [6]): 1 mg/kg
- inhibition in vivo at 0.625 mg/kg (Nematospiroides dubius; Heligmosomoides polygyrus, po, single oral dose 0.625 mg./Kg., adjusted to molar equivalents of tetramisole free base, read-out: Percent Nematospiroides Activity): 30%
- inhibition in vivo at 1.25 mg/kg (Nematospiroides dubius; [7]): 77%
- inhibition in vivo at 2 mg/kg (Nematospiroides dubius; [7]): 96%
- inhibition in vivo at 7.5 mg/kg (Nematospiroides dubius; [7]): 97%
- Percent Nematospiroides Activity (Nematospiroides dubius; single oral dose 5.0 mg./Kg., molar-adjusted): 100%
- Percent Nematospiroides Activity (Nematospiroides dubius; single oral dose 10 mg./Kg., molar-adjusted): 100%

SMILES: CC(C)Nc1cccc(C2CN3CCSC3=N2)c1 (stereo not drawn) [m-NH-CH(CH3)2 dl, 6-(m-isopropylaminophenyl)-2,3,5,6-tetrahydroimidazo[2,1-b]thiazole]
- Approx. LD50 /ED50 (in vivo [1]; Table IX): 8
- LD50 (in vivo [1]; [3]): ~40 mg/kg
- LD50 (in vivo [1]; [4]): ~50 mg/kg
- Dead/Total (in vivo [1]; single oral dose 40 Mg./Kg.): 2/6
- Dead/Total (in vivo [1]; single oral dose 60 Mg./Kg.): 3/6
- Dead/Total (in vivo [1]; single oral dose 80 Mg./Kg.): 4/6
- Dead/Total (in vivo [1]; single oral dose 100 Mg./Kg.): 5/6
- ED50 (Nematospiroides dubius; [5]): 5 mg/kg
- ED50 (Nematospiroides dubius; [6]): 5 mg/kg
- inhibition in vivo at 5 mg/kg (Nematospiroides dubius; [8]): 55%
- inhibition in vivo at 7.5 mg/kg (Nematospiroides dubius; [7]): 89%
- inhibition in vivo at 10 mg/kg (Nematospiroides dubius; [9]): 100%
- inhibition in vivo at 20 mg/kg (Nematospiroides dubius; [7]): 100%
- inhibition in vivo at 40 mg/kg (Nematospiroides dubius; [7]): 100%

SMILES: COC(=O)Nc1cccc(C2CN3CCSC3=N2)c1 (stereo not drawn) [m-NH-CO--OCH3 l, l-m-(2,3,5,6-tetrahydroimidazo[2,1-b]thiazol-6-yl)carbanilicacid methyl ester, hydrochloride]
- Approx. LD50 /ED50 (in vivo [1]; Table IX): 20
- LD50 (in vivo [1]; [3]): ~150 mg/kg
- LD50 (in vivo [1]; [4]): ~125 mg/kg
- Dead/Total (in vivo [1]; single oral dose 50 Mg./Kg.): 0/5
- Dead/Total (in vivo [1]; single oral dose 100 Mg./Kg.): 0/5
- Dead/Total (in vivo [1]; single oral dose 150 Mg./Kg.): 1/5
- Dead/Total (in vivo [1]; single oral dose 200 Mg./Kg.): 5/5
- ED50 (Nematospiroides dubius; [5]): 7.5 mg/kg
- ED50 (Nematospiroides dubius; [6]): 7.5 mg/kg
- inhibition in vivo at 5 mg/kg (Nematospiroides dubius; [8]): 28%
- inhibition in vivo at 10 mg/kg (Nematospiroides dubius; [9]): 61%
- inhibition in vivo at 20 mg/kg (Nematospiroides dubius; [7]): 100%
- inhibition in vivo at 40 mg/kg (Nematospiroides dubius; [7]): 100%

SMILES: CC(C)(C)C(=O)Nc1cccc(C2CN3CCSC3=N2)c1 (centres unmarked) [m-NH-CO-C(CH3)2 l]
- Approx. LD50 /ED50 (in vivo [1]; Table IX): 100
- LD50 (in vivo [1]; [3]): 100 mg/kg
- LD50 (in vivo [1]; [4]): ~100 mg/kg
- Dead/Total (in vivo [1]; single oral dose 50 Mg./Kg.): 0/6
- Dead/Total (in vivo [1]; single oral dose 100 Mg./Kg.): 2/6
- Dead/Total (in vivo [1]; single oral dose 200 Mg./Kg.): 6/6
- ED50 (Nematospiroides dubius; [5]): 1 mg/kg
- ED50 (Nematospiroides dubius; [6]): 1 mg/kg
- inhibition in vivo at 1.25 mg/kg (Nematospiroides dubius; [7]): 60%
- inhibition in vivo at 2 mg/kg (Nematospiroides dubius; [7]): 69%
- inhibition in vivo at 5 mg/kg (Nematospiroides dubius; [8]): 90%
- inhibition in vivo at 10 mg/kg (Nematospiroides dubius; [9]): 100%
